Among the data in ChEMBL document CHEMBL5380851, “"Magic Chloro": Profound Effects of the Chlorine Atom in Drug Discovery” (J Med Chem, 2023) are pKa values, retold here.

This series in a line: Dissociation constant, pKa of the compound.

As to `Clc1ccncc1`, the pKa (commonly the pH at which an ionisable group is half protonated) was 3.83.

Compound `Clc1ccccn1` [2-CHLOROPYRIDINE] yielded a pKa of 0.49. The figure for `Clc1cccnc1` is 2.81.
